Test results: US9695155B2, “Herbicidal substituted pyrimidinyloxy benzene compounds” (E. I. DU PONT DE NEMOURS AND COMPANY, priority 2013, dated 2017)

Columns and labels:
Italian ryegrass = test: Test C postemergence; format: in vivo, Lolium multiflorum; settings: for Plant response rating (0 to 100), Ryegrass, Italian: postemergence; for Plant response rating, Ryegrass, Italian: Postemergence, scale 0 to 100 (0 no effect, 100 complete control)
How it was run: (§1)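 Plants were kept under greenhouse conditions for 13–15 days following spray. Pre-emergent application went to soil (loam–sand), post-emergent to foliage at 1–4 leaves. Evaluation: visual, percent control against untreated checks.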

barnyardgrass [1] = test: Test C postemergence; format: in vivo, Echinochloa crus-galli; settings: for Plant response rating (0 to 100), Barnyardgrass: postemergence; for Plant response rating, Barnyardgrass: Postemergence, scale 0 to 100 (0 no effect, 100 complete control)
How it was run: as §1

barnyardgrass [2] = test: Test B flooded paddy test; format: in vivo, Echinochloa crus-galli; settings: Flood, 250 g ai/ha; 0 to 100 scale where 0 is no effect and 100 is complete control
How it was run: (§2)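 Evaluation is visual, against untreated controls, 13 to 15 days after treatment. Before treatment, plants reached the 2-leaf stage; pots were then flooded 3 cm deep, compound was added to the water, and that level was maintained. Ratings run 0 to 100, with 100 meaning complete control.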

wild oat = test: Test C postemergence; format: in vivo, Avena fatua; settings: for Plant response rating (0 to 100), Oat, Wild: postemergence; for Plant response rating, Oat, Wild: Postemergence, scale 0 to 100 (0 no effect, 100 complete control)
How it was run: as §1

corn [3] = test: Test C preemergence; format: in vivo, Zea mays; settings: for Corn plant response rating: preemergence, scale 0 (no effect) to 100 (complete control)
How it was run: as §1

corn [4] = test: Test A preemergence; format: in vivo, Zea mays
How it was run: (§3)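 Visual 0–100 rating (100 = complete control) taken about 10 d post-treatment relative to untreated checks. Preemergence: directed soil spray on sown loam/sand pots. Postemergence: seedlings 2–10 cm, 1–2 leaf. Non-phytotoxic solvent formulation with surfactant.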

morningglory = test: Test A preemergence; format: in vivo, Ipomoea spp.
How it was run: as §3

barnyardgrass [5] = test: Test A postemergence; format: in vivo, Echinochloa crus-galli
How it was run: as §3

waterhemp = test: Test C postemergence; format: in vivo, Amaranthus rudis; settings: for Plant response rating (0 to 100), Waterhemp: postemergence; for Plant response rating, Waterhemp: Postemergence, scale 0 to 100 (0 no effect, 100 complete control)
How it was run: as §1

pigweed = test: Test C postemergence; format: in vivo, Amaranthus retroflexus; settings: for Plant response rating (0 to 100), Pigweed: postemergence; for Plant response rating, Pigweed: Postemergence, scale 0 to 100 (0 no effect, 100 complete control)
How it was run: as §1

johnsongrass = test: Test C postemergence; format: in vivo, Sorghum halepense; settings: for Plant response rating (0 to 100), Johnsongrass: postemergence; for Plant response rating, Johnsongrass: Postemergence, scale 0 to 100 (0 no effect, 100 complete control)
How it was run: as §1

sedge, umbrella = test: Test B flooded paddy test; format: in vivo, Cyperus difformis; settings: Flood, 250 g ai/ha; 0 to 100 scale where 0 is no effect and 100 is complete control
How it was run: as §2

giant foxtail = test: Test C preemergence; format: in vivo, Setaria faberii; settings: for Foxtail, Giant plant response rating: preemergence, scale 0 (no effect) to 100 (complete control)
How it was run: as §1

velvetleaf = test: Test C postemergence; format: in vivo, Abutilon theophrasti; settings: for Plant response rating (0 to 100), Velvetleaf: postemergence; for Plant response rating, Velvetleaf: Postemergence, scale 0 to 100 (0 no effect, 100 complete control)
How it was run: as §1

yellow nutsedge = test: Test C postemergence; format: in vivo, Cyperus esculentus; settings: for Plant response rating (0 to 100), Nutsedge, Yellow: postemergence; for Plant response rating, Nutsedge, Yellow: Postemergence, scale 0 to 100 (0 no effect, 100 complete control)
How it was run: as §1

[6] = Preemergence, 31 g ai/ha, scale 0 to 100, 0 no effect, 100 complete control
[7] = 125 g ai/ha, 0 to 100 scale where 0 is no effect and 100 is complete control
[8] = 500 g ai/ha, 0 to 100 scale, 0 no effect, 100 complete control, approx. 10 days

Which results are given for `N#Cc1cccc(Oc2ncc(F)cn2)c1-n1cc(Cl)cn1` [Compound 73]?
Plant response rating (0 to 100), Ryegrass, Italian (Italian ryegrass; 125 g ai/ha): 0; Plant response rating (0 to 100), Ryegrass, Italian (Italian ryegrass; 250 g ai/ha): 5; Plant response rating, Ryegrass, Italian (Italian ryegrass; 31 g ai/ha, 13 to 15 days): 0; Plant response rating, Ryegrass, Italian (Italian ryegrass; 62 g ai/ha): 0; Plant response rating (0 to 100), Barnyardgrass (barnyardgrass [1]; 125 g ai/ha): 10; Plant response rating (0 to 100), Barnyardgrass (barnyardgrass [1]; 250 g ai/ha): 35; Plant response rating, Barnyardgrass (barnyardgrass [1]; 31 g ai/ha, 13 to 15 days): 0; Plant response rating, Barnyardgrass (barnyardgrass [1]; 62 g ai/ha): 0; Plant response rating, Barnyardgrass (barnyardgrass [2]): 0; Plant response rating (0 to 100), Oat, Wild (wild oat; 125 g ai/ha): 10; Plant response rating (0 to 100), Oat, Wild (wild oat; 250 g ai/ha): 15; Plant response rating, Oat, Wild (wild oat; 31 g ai/ha, 13 to 15 days): 5; Plant response rating, Oat, Wild (wild oat; 62 g ai/ha): 5; Corn plant response rating (corn [3]; 62 g ai/ha): 0; Corn plant response rating (corn [3]; 125 g ai/ha): 5; Corn plant response rating (corn [3]; 250 g ai/ha): 70; Plant response rating, Corn (corn [3]; [6]): 0; Plant response rating, Corn (corn [4]; [7]): 20; Corn plant response rating (corn [4]; [8]): 70; Plant response rating, Morningglory (morningglory; [7]): 90; Morningglory plant response rating (morningglory; [8]): 100; Plant response rating, Barnyardgrass (barnyardgrass [5]; [7]): 90; Plant response rating, Barnyardgrass (barnyardgrass [5]; 500 g ai/ha, 0 to 100 scale, 0 no effect, 100 complete control): 90; Plant response rating (0 to 100), Waterhemp (waterhemp; 125 g ai/ha): 75; Plant response rating (0 to 100), Waterhemp (waterhemp; 250 g ai/ha): 90; Plant response rating, Waterhemp (waterhemp; 31 g ai/ha, 13 to 15 days): 50; Plant response rating, Waterhemp (waterhemp; 62 g ai/ha): 60; Plant response rating (0 to 100), Pigweed (pigweed; 125 g ai/ha): 80; Plant response rating (0 to 100), Pigweed (pigweed; 250 g ai/ha): 90; Plant response rating, Pigweed (pigweed; 31 g ai/ha, 13 to 15 days): 45; Plant response rating, Pigweed (pigweed; 62 g ai/ha): 70; Plant response rating (0 to 100), Johnsongrass (johnsongrass; 125 g ai/ha): 5; Plant response rating (0 to 100), Johnsongrass (johnsongrass; 250 g ai/ha): 25; Plant response rating, Johnsongrass (johnsongrass; 31 g ai/ha, 13 to 15 days): 0; Plant response rating, Johnsongrass (johnsongrass; 62 g ai/ha): 5; Plant response rating, Sedge, Umbrella (sedge, umbrella): 85; Foxtail, Giant plant response rating (giant foxtail; 62 g ai/ha): 100; Foxtail, Giant plant response rating (giant foxtail; 125 g ai/ha): 100; Foxtail, Giant plant response rating (giant foxtail; 250 g ai/ha): 100; Plant response rating, Foxtail, Giant (giant foxtail; [6]): 85; Plant response rating (0 to 100), Velvetleaf (velvetleaf; 125 g ai/ha): 50; Plant response rating (0 to 100), Velvetleaf (velvetleaf; 250 g ai/ha): 70; Plant response rating, Velvetleaf (velvetleaf; 31 g ai/ha, 13 to 15 days): 30; Plant response rating, Velvetleaf (velvetleaf; 62 g ai/ha): 30; Plant response rating (0 to 100), Nutsedge, Yellow (yellow nutsedge; 125 g ai/ha): 5; Plant response rating (0 to 100), Nutsedge, Yellow (yellow nutsedge; 250 g ai/ha): 5; Plant response rating, Nutsedge, Yellow (yellow nutsedge; 31 g ai/ha, 13 to 15 days): 0; Plant response rating, Nutsedge, Yellow (yellow nutsedge; 62 g ai/ha): 0
